# From patent US20240316196A1, “METHODS AND COMPOSITIONS FOR DIFFERENTIATION OF PLURIPOTENT STEM CELLS AND DERIVED NATURAL KILLER CELLS” (NUWACELL BIOTECHNOLOGIES CO., LTD., priority 2022, published 2024)
# Legend:
# [1] = tested on: PBNK cells; test: Expansion of PBNK cells from PBMCs (NK cell expansion fold; CD56+CD3− % by flow cytometry); type: cell-based; details: NAM 0-5 mM in basal medium
# Protocol: The effect of the concentration of nicotinamide (NAM) in an exemplary basal medium on NK cell expansion was evaluated. The above basal medium comprised the following components: IMDM (Sigma): RPMI1640 (Gibco) (50%: 50%); about 1.3 ng/mL of Cupric sulfate, about 3 μM of Ferric sulfate, about 0.432 μg/mL of Zinc sulfate, about 1-50 ng/mL of Na Selenite, about 110 μg/mL of Sodium pyruvate, 0.1-20 μg/mL of Insulin, 1-200 μg/mL of Transferrin, about 1%(v/v) of GlutaMAX-1, 0.1-20 mg/mL of HSA, 1-400 μM of MTG, about 80 μg/mL of Ascorbic acid and indicated concentration of NAM. Peripheral blood mononuclear cells (PBMCs) were isolated by density gradient centrifugation using Ficoll-Paque. On Day 0, PBMCs were plated at 1×10^6 cells/mL in a 48-well-plate in the basal medium with NAM (either 0, 1, 2, 2.5, 3, 3.5, 4, or 5 mM) and stimulated with the following reagents for 3 days: immobilized CD16 antibody (Biolegend, 302014) (135 ng/cm^2), IL-2 (700 IU/mL), IL-15 (10 ng/mL) and OK432 (0.01 KE/mL). On day 3, cells were re-suspended in the above basal medium supplemented with IL-2 (700 IU/mL) and IL-15 (10 ng/mL). Fresh medium was added every other day to maintain cell density below 2×10^6 cells/mL. Cells were collect on Day 14 and stained with CD56-PE and CD3-PerCP-Cy5.5 antibodies, the percentage of CD56^+CD3^− NK cells was analyzed by flow cytometry.
# The effect of heparin sodium concentration in an exemplary NKSFM on NK cell expansion was also evaluated. NKSFM comprised the following components: IMDM (Sigma): DMEM/F12 (Gibco) (50%: 50%); about 20 μM of Ethanolamine, about 1-50 ng/mL of Na Selenite, about 110 μg/mL of Sodium pyruvate, 0.1-20 μg/mL of Insulin, 1-200 μg/mL of Transferrin, about 1%(v/v) of GlutaMAX-1, 0.1-20 mg/mL of Human serum albumin, 1-400 μM of MTG, about 80 μg/mL of Ascorbic acid, about 1-5 mM of NAM, 4%(v/v) of PLT, and indicated concentration of heparin sodium. PBMCs were isolated by density gradient centrifugation using Ficoll-Paque. On Day 0, PBMCs were plated at 1×10^6 cells/mL in a 48-well-plate in NKSFM with heparin sodium (0, 0.5, 1, 3, 10, 30, or 50 μg/mL) and stimulated with the following reagents for 3 days: immobilized CD16 antibody (Biolegend, 302014) (135 ng/cm^2), OK432 (0.01 KE/mL), NeoIL-2 (50 ng/mL), IL-12 (10 ng/mL), IL-18 (50 ng/mL). […] Cells were collect on Day 13 and stained with CD56-PE and CD3-PerCP-Cy5.5 antibodies, the percentage of CD56^+CD3^− NK cells was analyzed by flow cytometry. The specific lysis of K562 tumor cells by NK cells were assessed by CFSE/7-AAD cytotoxicity assay. […] After incubation for 4 hours, cells were stained with 7-AAD (Live/dead staining) and analyzed with flow cytometry.
# The effect of PLT percentage (v/v) in an exemplary NKSFM on NK cell expansion was evaluated. […]
# [2] = tested on: hiPSCs; test: Directed differentiation of hiPSCs into HE (KDR+), HP (CD34+) and iNK (CD56+) cells, flow cytometry; type: cell-based, human; details: for output of CD34^+ HP cells / output of CD56^+ iNK cells: added during Stage 1-4 (XAV939 5 μM, SB431542 6 μM); for output of CD34^+ HP cells: Day 10, vs control without both (FIG. 8A); for output of CD56^+ iNK cells: Day 25, vs control without both (FIGS. 8B, 8C)
# Protocol: hiPSCs were prepared as described in CN108373998B. The effect of plate coating during Stage 2 on iNK differentiation was further evaluated. On Day −1, Embryoid body (EB) formation (Stage 1-1) was carried out by placing individualized hiPSCs in E8 medium containing 10 μM Blebbistatin in T25 flasks on a bellydancer and culture overnight. On Day 0, lateral mesoderm differentiation (Stage 1-2) was initiated by changing the medium to a Stage 1-2 differentiation medium comprising CD34A basal medium and supplemented with BMP4 (25 ng/mL), VEGF (15 ng/mL), bFGF (0.5 ng/mL) and CHIR99021 (4 μM) for 2 days. On Day 2, lateral mesoderm differentiation (Stage 1-3) continued for 1 day in a Stage 1-3 differentiation medium comprising CD34A basal medium and supplemented with BMP4 (25 ng/mL), VEGF (15 ng/mL) and bFGF (0.5 ng/mL) and CHIR99021 (4 μM). On Day 3, HE specification (Stage 1-4) was initiated by adding a Stage 1-4 differentiation medium comprising CD34A basal medium and supplemented with insulin (5 μg/mL), VEGF (15 ng/mL), bFGF (5 ng/mL), SB431542 (6 μM) for 1 day. On Day 4 (the end of Stage 1-4), HP differentiation (Stage 1-5) in was initiated by adding a Stage 1-5 differentiation medium comprising CD34A basal medium and supplemented with SCF (10 ng/mL), Flt3L (10 ng/mL), VEGF (15 ng/mL) and bFGF (5 ng/mL). To initiate the differentiation from HP cells into iNK cells (Stage 2), EBs of Day 11 were collected and seeded in 24-well-plates without matrix or coated with DLL4 and VCAM1, in a Stage 2 differentiation medium comprising NKSFM and supplemented with SCF (20 ng/mL), Flt3L (10 ng/mL), IL-7 (25 ng/mL), IL-3 (5 ng/mL), IL-15 (10 ng/mL) for 14 days. On Day 25 (Stage 2-wk2), derived cells were counted and stained with CD56-PE antibody, the percentage of CD56+ iNK cells was detected by flow cytometry. […] The differentiation from hPSCs to immature iNK cells was accomplished in only 26 days. Furthermore, the percentage of CD56+CD3−iNK cells at the end of Stage 2 is as high as 80.56% when differentiation was performed with NKSFM and DLL4/VCAM1.
# hiPSCs were prepared as described in CN108373998B. On Day −1, Embryoid body (EB) formation (Stage 1-1) was carried out by placing individualized hiPSCs in E8 medium containing 10 μM Blebbistatin in T25 flasks on a bellydancer and culture overnight. On Day 0, lateral mesoderm differentiation (Stage 1-2) was initiated by changing the medium to a Stage 1-2 differentiation medium comprising IF-4 basal medium and supplemented with BMP4 (25 ng/mL), VEGF (50 ng/mL), bFGF (0.5 ng/mL) and CHIR99021 (4 μM) for 2 days. On Day 2, lateral mesoderm differentiation (Stage 1-3) continued for 1 day in a Stage 1-3 differentiation medium comprising IF-4 basal medium and supplemented with BMP4 (25 ng/mL), VEGF (50 ng/mL) and bFGF (0.5 ng/mL) and CHIR99021 (1 μM). On Day 3, HE specification (Stage 1-4) was initiated by adding a Stage 1-4 differentiation medium comprising IF-4 basal medium and supplemented with VEGF (50 ng/mL), bFGF (5 ng/mL), and without or with XAV939 (5 μM) and/or SB431542 (6 μM) for 1 day. On Day 4, HP differentiation (Stage 1-5) was initiated by adding a Stage 1-5 differentiation medium comprising NKSFM and supplemented with SCF (50 ng/mL), Flt3L (10 ng/mL), VEGF (15 ng/mL) and bFGF (5 ng/mL) for 6 days. On Day 10 (the end of Stage 1), EBs were dissociated into single cells and stained with CD34-APC antibody (BD, #555824), the percentage of CD34^+ HP cells was detected by flow cytometry. To initiate the differentiation from HP cells into iNK cells (Stage 2), EBs were collected and seeded in 24-well-plates coated with matrix proteins, DLL4 and VCAM1, in a Stage 2 differentiation medium comprising NKSFM and supplemented with SCF (20 ng/mL), Flt3L (10 ng/mL), IL-7 (25 ng/mL), IL-3 (5 ng/mL), IL-2 (700 IU/mL), IL-15 (10 ng/mL) for 15 days. On Day 25 (the end of Stage 2), derived cells were counted and stained with CD56-PE antibody (BD, #555516), the percentage of CD56^+ iNK cells was detected by flow cytometry. […]
# [3] = higher VEGF concentration during Stage 1-5
compound,measurement,setting,value
"NC(=O)c1cccnc1 [NAM, nicotinamide]","NK cell expansion fold, effect of concentration",[1]; Day 14 (FIG. 2A),significantly impacts
same,"percentage of CD56^+CD3^− NK cells, effect of concentration",[1]; Day 14 (FIG. 2B),minimal effects
VEGF,HP and iNK cell differentiation,"[2]; Example 12: higher concentration during Stage 1, especially Stage 1-2, 1-3 and 1-4 (Table 3.2, FIG. 12)",significantly improves
same,"percentage of KDR+ HE cells, effect of concentration","[2]; VEGF 15-100 ng/mL in Stage 1 substages (Table 3.1), Day 4 (FIG. 11A)",minimal effects
same,"percentage of CD34+ HP cells, effect of concentration","[2]; VEGF 15-100 ng/mL in Stage 1 substages (Table 3.1), Day 10 (FIG. 11B)",significantly impacts
same,"efficiency of further differentiation into iNK cells, effect of concentration","[2]; VEGF 15-100 ng/mL in Stage 1 substages (Table 3.1), Day 24 morphology (FIG. 11C)",significantly impacts
same,differentiation into HP cells and iNK cells,[2]; higher VEGF concentration during Stage 1-2 and Stage 1-3,generally beneficial
same,differentiation into HP cells,[2]; [3],generally beneficial
same,differentiation into iNK cells,[2]; [3],not into iNK cells
Cc1c[nH]c(-c2cnc(NCCNc3ccc(C#N)cn3)nc2-c2ccc(Cl)cc2Cl)n1 [CHIR99021],differentiation into CD34+ HP cells,"[2]; higher concentration during Stage 1-2 (5, 6, 7, 8 μM), Day 7 (FIG. 9A)",generally more advantageous
same,differentiation into CD56+ iNK cells,"[2]; higher concentration during Stage 1-2 (5, 6, 7, 8 μM), Day 24 (FIGS. 9B, 9C)",somewhat disadvantageous
same,differentiation into CD34+ HP cells,"[2]; lower concentration during Stage 1-3 (0-4 μM), Day 7 (FIG. 10A)",somewhat disadvantageous
same,differentiation into CD56+ iNK cells,"[2]; lower concentration during Stage 1-3 (0-4 μM), Day 24 (FIGS. 10B, 10C)",generally more advantageous
NC(=O)c1ccc(-c2nc(-c3ccc4c(c3)OCO4)c(-c3ccccn3)[nH]2)cc1 [SB431542],output of CD34^+ HP cells,[2],improvement in increasing CD34^+ HP cell production at a certain degree
same,output of CD56^+ iNK cells,[2],does not show any improvement
Oc1nc(-c2ccc(C(F)(F)F)cc2)nc2c1CSCC2 [XAV939],output of CD34^+ HP cells,[2],significantly promotes
same,output of CD56^+ iNK cells,[2],significantly promotes
